Target: Serotonin (5-HT) receptor
Assay: Affinity for 5-hydroxytryptamine receptor was determined using male Dawley rat fundus preparation
Type: protein assay

| SMILES | pA2 |
| --- | --- |
| NCC1=CCCc2ccccc21 | 5.81 |
| NCC(N)c1ccccc1 (racemic) | 4.9 |
| CC(N)C(=O)c1ccc(O)cc1 (racemic) [HYDROXYLATED COMPLETELY DELAKYLATED DIETHYLPROPION] | 5.3 |
| COc1ccc2c(c1)C(CN)CCO2 (stereo not given) | 5.94 |
| NC1CCc2ccccc2C1 (stereo not given) | 5.61 |
| COc1ccc2c(c1)C(CN)=CCO2 | 6.12 |
| COc1ccc(C(=O)C(C)N)cc1OC (racemic) | 6.14 |
| CC(N)C(=O)c1ccccc1 (stereo not given) [DEALKYLATED DIETHYLPROPION] | 5.86 |
| NCC1=CCOc2ccccc21 | 4.94 |
| NC1CCc2ccccc2C1=O (stereo not given) | 6.04 |
